Measured values as given in ChEMBL document CHEMBL5465560, “Selectivity Literature for EUbOPEN Chemogenomic Library” (2024).

Legend:
[1] = target: Dual specificity protein kinase CLK1 (Homo sapiens, UniProt P49759); experiment: Selectivity interaction (KinomeScan (DiscoverX)) EUB0000595a CLK1; settings: at 10 µM
[2] = test system: Epidermal growth factor receptor (Homo sapiens), P00533 [UNDEFINED MUTATION]; experiment: Selectivity interaction (KinomeScan (DiscoverX)) EUB0000045b EGFR; settings: at 1 µM
[3] = target: T1, Muscle, skeletal receptor tyrosine-protein kinase (Homo sapiens) (UniProt O15146); experiment: Selectivity interaction (KinomeScan (DiscoverX)) EUB0000695a MUSK; settings: at 100 nM
T1 sequence (whole entry): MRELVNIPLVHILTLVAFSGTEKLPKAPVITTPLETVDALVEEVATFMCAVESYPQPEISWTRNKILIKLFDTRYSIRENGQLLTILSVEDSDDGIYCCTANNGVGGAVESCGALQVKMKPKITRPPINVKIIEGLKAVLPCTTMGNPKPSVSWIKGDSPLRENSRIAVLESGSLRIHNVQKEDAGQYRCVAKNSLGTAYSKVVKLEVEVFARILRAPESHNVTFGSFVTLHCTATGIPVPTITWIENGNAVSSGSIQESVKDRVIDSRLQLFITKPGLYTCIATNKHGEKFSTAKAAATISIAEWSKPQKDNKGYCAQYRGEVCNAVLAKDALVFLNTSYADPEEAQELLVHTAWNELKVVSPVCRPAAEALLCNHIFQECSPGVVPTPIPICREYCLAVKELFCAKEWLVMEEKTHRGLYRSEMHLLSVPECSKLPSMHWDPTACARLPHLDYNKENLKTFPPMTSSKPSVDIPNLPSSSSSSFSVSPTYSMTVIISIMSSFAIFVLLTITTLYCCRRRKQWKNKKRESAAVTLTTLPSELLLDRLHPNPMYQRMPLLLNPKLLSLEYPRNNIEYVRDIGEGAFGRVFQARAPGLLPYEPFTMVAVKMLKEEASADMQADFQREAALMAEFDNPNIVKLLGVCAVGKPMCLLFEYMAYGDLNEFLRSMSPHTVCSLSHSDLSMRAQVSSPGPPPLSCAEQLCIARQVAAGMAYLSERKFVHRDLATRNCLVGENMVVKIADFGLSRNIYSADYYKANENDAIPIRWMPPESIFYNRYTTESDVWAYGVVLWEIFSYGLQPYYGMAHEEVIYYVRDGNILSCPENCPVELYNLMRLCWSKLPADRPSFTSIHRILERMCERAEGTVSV

[4] = target: Proto-oncogene tyrosine-protein kinase ROS (Homo sapiens) (UniProt P08922); experiment: Selectivity interaction (KinomeScan (DiscoverX)) EUB0000695a ROS1; settings: at 100 nM
CDK1/Cyclin A = CDK1/Cyclin A (Homo sapiens, UniProt P06493+P20248+P78396); experiment: Selectivity interaction (Enzymatic assay (Reaction Biology)) EUB0001632a CDK1; assay type: protein-complex assay
[5] = target: Serine/threonine-protein kinase OSR1 (Homo sapiens) (UniProt O95747); experiment: Selectivity interaction (KinomeScan (DiscoverX)) EUB0000666a OXSR1; settings: at 10 µM
Chain of Serine/threonine-protein kinase OSR1 (Homo sapiens) (O95747 2-527 limits assumed): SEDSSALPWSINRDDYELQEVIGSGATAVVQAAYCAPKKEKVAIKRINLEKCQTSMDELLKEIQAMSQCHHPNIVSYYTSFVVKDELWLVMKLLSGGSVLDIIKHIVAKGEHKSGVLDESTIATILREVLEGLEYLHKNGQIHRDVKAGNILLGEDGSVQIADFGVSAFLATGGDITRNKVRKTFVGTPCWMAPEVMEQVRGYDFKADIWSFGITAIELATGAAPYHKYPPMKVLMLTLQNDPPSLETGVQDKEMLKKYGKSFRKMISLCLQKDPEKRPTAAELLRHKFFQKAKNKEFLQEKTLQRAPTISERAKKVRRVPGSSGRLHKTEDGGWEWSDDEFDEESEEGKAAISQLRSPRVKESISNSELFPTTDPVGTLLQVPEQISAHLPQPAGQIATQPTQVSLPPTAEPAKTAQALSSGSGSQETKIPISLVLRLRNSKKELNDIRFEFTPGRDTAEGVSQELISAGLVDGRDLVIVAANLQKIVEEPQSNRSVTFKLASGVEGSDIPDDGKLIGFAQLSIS

[6] = target: Cholecystokinin receptor type A (Homo sapiens) (UniProt P32238); experiment: Selectivity interaction (Eurofins CEREP Diversity Profile (receptors and ion channels)) EUB0000279b CCKAR; settings: at 10 µM
Chain of Cholecystokinin receptor type A (Homo sapiens) (P32238 whole entry): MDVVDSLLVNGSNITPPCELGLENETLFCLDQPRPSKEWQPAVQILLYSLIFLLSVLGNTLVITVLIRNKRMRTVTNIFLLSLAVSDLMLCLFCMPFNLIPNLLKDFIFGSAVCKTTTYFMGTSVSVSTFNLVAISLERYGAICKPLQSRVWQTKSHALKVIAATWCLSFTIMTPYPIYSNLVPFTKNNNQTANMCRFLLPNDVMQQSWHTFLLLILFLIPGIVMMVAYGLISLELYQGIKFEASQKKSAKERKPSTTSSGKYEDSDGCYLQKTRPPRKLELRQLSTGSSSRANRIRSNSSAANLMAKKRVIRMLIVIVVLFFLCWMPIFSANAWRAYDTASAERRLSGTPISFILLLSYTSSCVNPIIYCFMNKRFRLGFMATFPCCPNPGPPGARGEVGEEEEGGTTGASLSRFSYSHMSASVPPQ

[7] = target: Tyrosine-protein kinase Fyn (Homo sapiens) (UniProt P06241); experiment: Selectivity interaction (Upstate Kinase Profiler service (Millipore)) EUB0000056c FYN; settings: at 1 µM
[8] = target: Protein-tyrosine kinase 2-beta (Homo sapiens) (UniProt Q14289); experiment: Selectivity interaction (KinomeScan (DiscoverX)) EUB0001619a PTK2B; settings: at 1 µM
Chain of Protein-tyrosine kinase 2-beta (Homo sapiens) (Q14289 whole entry, looked up, canonical isoform): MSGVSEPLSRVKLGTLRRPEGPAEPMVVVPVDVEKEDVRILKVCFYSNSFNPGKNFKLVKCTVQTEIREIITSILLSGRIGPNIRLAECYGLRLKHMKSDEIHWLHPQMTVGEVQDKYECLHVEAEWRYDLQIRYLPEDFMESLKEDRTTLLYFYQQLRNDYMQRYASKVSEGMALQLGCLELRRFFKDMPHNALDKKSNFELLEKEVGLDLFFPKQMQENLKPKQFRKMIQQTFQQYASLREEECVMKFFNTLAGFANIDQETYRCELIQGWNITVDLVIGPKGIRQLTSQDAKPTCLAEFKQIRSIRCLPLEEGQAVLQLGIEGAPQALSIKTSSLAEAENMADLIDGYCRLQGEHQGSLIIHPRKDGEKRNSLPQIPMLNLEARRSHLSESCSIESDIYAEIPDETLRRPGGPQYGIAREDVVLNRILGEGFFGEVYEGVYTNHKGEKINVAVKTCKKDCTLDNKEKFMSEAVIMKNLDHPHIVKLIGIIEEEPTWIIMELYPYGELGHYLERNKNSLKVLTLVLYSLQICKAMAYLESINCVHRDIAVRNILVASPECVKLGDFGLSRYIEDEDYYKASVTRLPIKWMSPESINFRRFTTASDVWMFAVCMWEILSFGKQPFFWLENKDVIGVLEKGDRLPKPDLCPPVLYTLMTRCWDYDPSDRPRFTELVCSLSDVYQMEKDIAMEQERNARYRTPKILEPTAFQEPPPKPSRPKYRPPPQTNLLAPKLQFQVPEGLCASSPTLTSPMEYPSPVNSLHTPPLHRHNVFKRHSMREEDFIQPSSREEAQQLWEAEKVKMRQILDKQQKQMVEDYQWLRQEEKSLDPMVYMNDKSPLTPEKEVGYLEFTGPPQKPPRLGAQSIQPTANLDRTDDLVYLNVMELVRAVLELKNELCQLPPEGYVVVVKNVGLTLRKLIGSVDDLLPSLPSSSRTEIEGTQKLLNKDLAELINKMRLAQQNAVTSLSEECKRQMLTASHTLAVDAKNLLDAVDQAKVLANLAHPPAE

[9] = target: Phosphatidylinositol 4,5-bisphosphate 3-kinase catalytic subunit beta isoform (Homo sapiens) (UniProt P42338); experiment: Selectivity interaction (ActivX KiNativ screen (ex vivo kinase selectivity in human PBMCs)) EUB0001619a PIK3CB; assay type: cell-based; settings: PBMC, at 1 µM
Chain of Phosphatidylinositol 4,5-bisphosphate 3-kinase catalytic subunit beta isoform (Homo sapiens) (P42338 whole entry, looked up, canonical isoform): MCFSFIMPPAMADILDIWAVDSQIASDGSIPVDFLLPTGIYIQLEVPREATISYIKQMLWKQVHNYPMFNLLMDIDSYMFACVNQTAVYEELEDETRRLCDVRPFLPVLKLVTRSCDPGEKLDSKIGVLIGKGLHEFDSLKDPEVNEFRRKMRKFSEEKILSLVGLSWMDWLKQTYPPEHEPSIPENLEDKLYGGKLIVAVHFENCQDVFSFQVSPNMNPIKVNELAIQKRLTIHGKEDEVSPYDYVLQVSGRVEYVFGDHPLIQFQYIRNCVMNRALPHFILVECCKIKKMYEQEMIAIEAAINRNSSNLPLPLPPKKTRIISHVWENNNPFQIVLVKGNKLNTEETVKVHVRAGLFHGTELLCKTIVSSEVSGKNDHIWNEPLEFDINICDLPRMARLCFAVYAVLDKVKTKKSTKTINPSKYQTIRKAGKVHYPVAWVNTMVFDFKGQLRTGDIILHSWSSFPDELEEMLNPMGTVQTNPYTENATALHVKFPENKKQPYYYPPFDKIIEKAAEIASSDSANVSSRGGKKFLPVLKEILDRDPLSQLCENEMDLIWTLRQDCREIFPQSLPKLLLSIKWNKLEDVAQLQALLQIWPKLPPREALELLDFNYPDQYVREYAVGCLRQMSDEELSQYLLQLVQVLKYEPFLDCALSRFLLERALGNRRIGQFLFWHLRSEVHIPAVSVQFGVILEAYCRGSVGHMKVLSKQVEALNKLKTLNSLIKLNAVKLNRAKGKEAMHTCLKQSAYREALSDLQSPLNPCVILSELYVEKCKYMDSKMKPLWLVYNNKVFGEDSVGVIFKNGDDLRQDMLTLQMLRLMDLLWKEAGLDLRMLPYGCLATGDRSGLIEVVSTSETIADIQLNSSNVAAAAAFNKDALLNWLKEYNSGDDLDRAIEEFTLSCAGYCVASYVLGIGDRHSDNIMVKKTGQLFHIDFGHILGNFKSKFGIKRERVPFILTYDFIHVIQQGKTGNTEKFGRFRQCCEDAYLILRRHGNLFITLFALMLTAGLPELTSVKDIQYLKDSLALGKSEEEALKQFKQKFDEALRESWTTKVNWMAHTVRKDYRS

[10] = target: Serine/threonine-protein kinase 17A (Homo sapiens, UniProt Q9UEE5)
Chain of Serine/threonine-protein kinase 17A (Q9UEE5 whole entry): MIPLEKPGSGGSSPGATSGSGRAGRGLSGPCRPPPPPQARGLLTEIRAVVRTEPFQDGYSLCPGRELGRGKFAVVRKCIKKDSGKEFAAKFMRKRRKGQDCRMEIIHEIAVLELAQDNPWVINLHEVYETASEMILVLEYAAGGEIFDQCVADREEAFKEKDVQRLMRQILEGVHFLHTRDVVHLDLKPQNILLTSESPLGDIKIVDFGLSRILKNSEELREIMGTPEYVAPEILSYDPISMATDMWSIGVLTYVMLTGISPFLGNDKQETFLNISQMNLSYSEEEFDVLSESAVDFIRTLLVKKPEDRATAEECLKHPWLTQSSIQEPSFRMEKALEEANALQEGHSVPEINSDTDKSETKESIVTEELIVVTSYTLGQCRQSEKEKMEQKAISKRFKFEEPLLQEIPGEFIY

[11] = target: Serine/threonine-protein kinase MARK2 (Homo sapiens) (UniProt Q7KZI7); experiment: Selectivity interaction (ActivX KiNativ screen (kinase selectivity in THP-1 cell lysates)) EUB0000639a MARK2; assay type: subcellular; settings: lysate, at 0.04 µM
Chain of Serine/threonine-protein kinase MARK2 (Homo sapiens) (Q7KZI7 whole entry): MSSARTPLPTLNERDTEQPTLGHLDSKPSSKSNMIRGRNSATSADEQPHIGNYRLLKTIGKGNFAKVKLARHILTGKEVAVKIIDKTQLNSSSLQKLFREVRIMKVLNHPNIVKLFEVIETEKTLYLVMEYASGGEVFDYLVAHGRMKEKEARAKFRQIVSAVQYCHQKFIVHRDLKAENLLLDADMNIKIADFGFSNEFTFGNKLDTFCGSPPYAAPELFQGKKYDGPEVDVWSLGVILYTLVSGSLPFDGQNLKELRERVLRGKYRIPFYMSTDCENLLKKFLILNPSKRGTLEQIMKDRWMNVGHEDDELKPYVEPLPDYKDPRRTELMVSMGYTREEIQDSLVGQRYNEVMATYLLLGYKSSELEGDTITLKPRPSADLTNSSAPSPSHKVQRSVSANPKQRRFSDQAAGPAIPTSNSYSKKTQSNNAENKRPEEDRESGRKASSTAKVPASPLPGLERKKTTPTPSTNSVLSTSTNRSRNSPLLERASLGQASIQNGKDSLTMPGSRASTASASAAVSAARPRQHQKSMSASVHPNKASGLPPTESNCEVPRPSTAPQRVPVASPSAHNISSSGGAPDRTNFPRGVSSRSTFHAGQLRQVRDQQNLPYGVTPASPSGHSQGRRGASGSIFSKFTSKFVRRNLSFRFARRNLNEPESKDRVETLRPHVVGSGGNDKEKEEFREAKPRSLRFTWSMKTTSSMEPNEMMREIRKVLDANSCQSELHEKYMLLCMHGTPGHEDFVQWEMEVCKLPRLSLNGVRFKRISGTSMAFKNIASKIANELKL

[12] = target: Ribosomal protein S6 kinase alpha-4 (Homo sapiens) (UniProt O75676); settings: at 10 µM
Chain of Ribosomal protein S6 kinase alpha-4 (Homo sapiens) (O75676 whole entry, looked up): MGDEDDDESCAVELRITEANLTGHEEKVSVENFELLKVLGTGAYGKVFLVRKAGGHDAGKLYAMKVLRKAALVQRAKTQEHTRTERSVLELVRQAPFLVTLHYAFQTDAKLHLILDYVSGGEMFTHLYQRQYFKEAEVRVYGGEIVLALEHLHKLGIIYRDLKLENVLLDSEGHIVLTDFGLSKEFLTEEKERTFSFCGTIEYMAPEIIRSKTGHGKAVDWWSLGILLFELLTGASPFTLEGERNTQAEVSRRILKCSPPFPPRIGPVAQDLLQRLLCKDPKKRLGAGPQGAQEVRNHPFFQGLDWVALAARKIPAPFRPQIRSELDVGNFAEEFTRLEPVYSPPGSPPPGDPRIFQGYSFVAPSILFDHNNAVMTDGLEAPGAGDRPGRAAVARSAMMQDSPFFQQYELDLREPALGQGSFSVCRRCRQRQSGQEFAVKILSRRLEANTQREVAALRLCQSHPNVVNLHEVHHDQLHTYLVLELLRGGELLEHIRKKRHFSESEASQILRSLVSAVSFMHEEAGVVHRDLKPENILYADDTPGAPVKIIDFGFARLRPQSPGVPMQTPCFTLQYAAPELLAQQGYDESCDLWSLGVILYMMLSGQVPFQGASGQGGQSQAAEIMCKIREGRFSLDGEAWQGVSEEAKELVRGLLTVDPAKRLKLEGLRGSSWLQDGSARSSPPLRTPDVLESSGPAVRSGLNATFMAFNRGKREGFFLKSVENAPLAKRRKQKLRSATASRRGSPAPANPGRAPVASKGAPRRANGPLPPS

[13] = target: T2, Testis-specific serine/threonine-protein kinase 1 (Homo sapiens) (UniProt Q9BXA7); experiment: Selectivity interaction (KinomeScan (DiscoverX)) EUB0000092b TSSK1A; settings: at 10 µM
T2 sequence (whole entry): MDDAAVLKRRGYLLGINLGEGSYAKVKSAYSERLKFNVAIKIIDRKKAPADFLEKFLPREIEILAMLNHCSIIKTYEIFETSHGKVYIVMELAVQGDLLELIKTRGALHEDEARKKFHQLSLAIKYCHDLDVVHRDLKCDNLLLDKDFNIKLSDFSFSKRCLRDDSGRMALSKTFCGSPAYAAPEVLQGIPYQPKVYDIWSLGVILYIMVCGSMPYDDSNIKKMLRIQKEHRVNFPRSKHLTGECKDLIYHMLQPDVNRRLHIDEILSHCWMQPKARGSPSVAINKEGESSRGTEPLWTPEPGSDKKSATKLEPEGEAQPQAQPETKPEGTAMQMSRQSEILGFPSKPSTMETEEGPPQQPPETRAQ

[14] = target: T3, Calcium/calmodulin-dependent protein kinase type IV (Homo sapiens) (UniProt Q16566); experiment: Selectivity interaction (Ambit KINOMEscan and KiNATiv profiling in Jurkat cells) EUB0000090b CAMK4; assay type: cell-based; settings: at 1 µM
T3 sequence (whole entry): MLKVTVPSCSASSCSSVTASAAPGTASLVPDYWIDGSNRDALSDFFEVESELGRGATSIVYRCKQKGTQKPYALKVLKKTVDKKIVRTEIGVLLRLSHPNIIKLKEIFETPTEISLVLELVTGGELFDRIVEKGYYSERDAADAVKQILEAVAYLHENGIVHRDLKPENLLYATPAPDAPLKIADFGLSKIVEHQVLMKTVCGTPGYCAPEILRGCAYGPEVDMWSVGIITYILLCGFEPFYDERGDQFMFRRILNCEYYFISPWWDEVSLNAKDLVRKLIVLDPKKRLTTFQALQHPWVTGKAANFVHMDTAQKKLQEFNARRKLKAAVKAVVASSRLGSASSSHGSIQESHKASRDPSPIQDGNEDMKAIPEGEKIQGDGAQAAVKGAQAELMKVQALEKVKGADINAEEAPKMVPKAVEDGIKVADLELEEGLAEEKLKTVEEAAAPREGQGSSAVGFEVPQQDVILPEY

For `COCC(=O)NC/C=C/c1ccc2ncnc(Nc3ccc(Oc4ccc(C)nc4)c(C)c3)c2c1` [CP-724714], which % of control [1] is on record?
The % of control was 90%.

Which % of control [2] does the source give for `C=CC(=O)Nc1cc(-n2c(=O)ccc3cnc4ccc(-c5ccc(NS(C)(=O)=O)cc5)cc4c32)ccc1C` here?
The % of control was 51%.

For `Cc1cc(F)c(C(=O)Nc2cccc(-c3nncn3C(C)C)n2)cc1-n1cnc(C2CC2)c1`, which % of control [3] is on record?
The % of control was 91%.

And the % of control [4]?
The % of control was 79%.

How did the IC50 (CDK1/Cyclin A) turn out when `Cn1cc(-n2cnc3c(NCc4nc5cc(Cl)c(Cl)cc5[nH]4)nc(N4CCOCC4)nc32)cn1` was run?
Its IC50 is > 10 µM.

How did the % of control [5] turn out when `O=C(NOC[C@H](O)CO)c1ccc(F)c(F)c1Nc1ccc(I)cc1F` was run?
Its % of control is 100%.

`CC(=O)c1cc(-c2ccccc2OCC2CC2)c2ncccn12` was tested. Which % of control [6] did it give?
The % of control was 116%.

How did the % of inhibition [7] turn out when `Cc1ccc(-c2ccc3c(ccc4sc5c(c43)NC[C@@H](C)NC5=O)n2)cn1` was run?
The % of inhibition was 24%.

How did the % of control [8] turn out when `N#Cc1cccc(-c2c[nH]c3ncnc(N4CCOCC4)c23)c1` was run?
The % of control was 100%.

What about the % of inhibition [9] of the same molecule?
The % of inhibition was -1%.

How did the IC50 [10] turn out when `CN1CCN(C(=O)c2ccc3cc2OCCOCCNc2ccn4ncc-3c4n2)CC1` was run?
The IC50 was 20 µM.

`CC[C@@H]1[C@H](F)C(=O)N[C@@H]1COc1nccc2cc(C(N)=O)c(OC)cc12` [ZIMLOVISERTIB] was tested. Which % of inhibition [11] did it give?
The % of inhibition was 0.7%.

`CCN(CC)CCCCNc1ncc2cc(-c3cc(OC)cc(OC)c3)c(NC(=O)NC(C)(C)C)nc2n1` was tested. Which % of control [12] did it give?
The % of control was 100%.

Which % of control [13] does the source give for `CCC(=O)N1CCN(c2ccc(-n3c(=O)ccc4cnc5ccc(-c6cnc7ccccc7c6)cc5c43)cc2C(F)(F)F)CC1` here?
The % of control was 100%.

`CN(C)C/C=C/C(=O)Nc1ccc(C(=O)N2CCCC(Nc3ncc(Cl)c(-c4c[nH]c5ccccc45)n3)C2)cc1` (stereo not given) was tested. Which % of control [14] did it give?
Its % of control is 69%.
